# Experimental data taken from PMC11784839, “Monoaminergic neurotransmitters are bimodal effectors of tau aggregation” (Science Advances, 2025).
# Target: tau (Homo sapiens, UniProt P10636)
# Experiment: MCE Phenols Library screening, tau biosensor cell seeding assay (AvZ)
# Assay type: cell-based
# Details: for Z repl 1 / Z Repl 2: Z score; for Z repl 1 / raw data 1: replicate 1; for Z Repl 2 / raw data 2: replicate 2; for AvZ (average z score of seeding, SDs from the mean level of seeding): 10 μM phenol in cell cultures, AD brain homogenate preincubated 16 hours, two biological replicates, positive = catalyzes seeding, negative = inhibits
# [1] = average Z score of the two replicates, tau seeding
# [2] = average Z score of the two replicates, MCE Phenols Library screen
# [3] = average puncta of the two replicates
# [4] = average Z score of the two replicates, tau biosensor seeding, MCE Phenols Library screen
# Sequence of tau (P10636 623-695 limits assumed): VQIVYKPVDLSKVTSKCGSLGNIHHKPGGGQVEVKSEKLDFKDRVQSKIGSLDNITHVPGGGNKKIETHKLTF
Z repl 1,Z Repl 2,av Z [1],av puncta (average of raw data 1 and 2),raw data 1 (puncta),raw data 2 (puncta),av Z [2],av puncta [3],raw data 1 (raw puncta),raw data 2 (raw puncta),av Z [4],"AvZ (average z score of seeding, SDs from the mean level of seeding)","av Z (average Z score of two replicates, Phenols Library screen)",Compound
0.123,-0.524,,,,,-0.2,17498.7,27830.8,7166.64,,,,COc1cc2c(=O)c(-c3ccc(O)cc3)coc2cc1O [Glycitein]
-0.561,-0.884,,,19618.8,3323.85,-0.722,11471.3,,,,,,O=c1c(O)c(-c2ccc(O)c(O)c2)oc2c(O[C@@H]3O[C@H](CO)[C@@H](O)[C@H](O)[C@H]3O)c(O)cc(O)c12 [Gossypin]
0.553,-0.208,0.172,21762.9,32984.4,10541.3,,,,,,,,COc1cc2c(cc1O)CC[n+]1cc3c4c(ccc3cc1-2)OCO4 [Groenlandicine]
-0.724,-0.582,,,17657.8,6546.75,,12102.3,,,,-0.653,,COc1ccccc1O [Guaiacol]
-2.129,-1.129,,747.252,787.042,707.463,-1.629,,,,,-1.63,,O=c1c(O)c(-c2ccc(O)cc2)oc2c(O)c(O)cc(O)c12 [Herbacetin]
0.687,-0.112,0.287,23081.7,34594.7,11568.8,,,,,,,,O=c1cc(O)cc(/C=C/c2ccc(O)c(O)c2)o1 [Hispidin]
-0.248,0.325,,19806.4,23372.2,16240.5,,,,,,0.039,,O=C(O)C(O)Cc1ccc(O)cc1 (stereo not drawn) [Hydroxyphenyllactic acid]
-0.003,-1.049,,,26308.5,1565.31,,13936.9,,,,,,CC(=O)OCCc1ccc(O)c(O)c1 [Hydroxytyrosol acetate]
-0.253,-0.241,,,,,-0.247,16752.5,23311.4,10193.6,,,,O=c1c(O[C@@H]2O[C@H](CO)[C@H](O)[C@H](O)[C@H]2O)c(-c2ccc(O)c(O)c2)oc2cc(O)cc(O)c12 [Hyperoside]
0.381,0.569,0.475,24883.3,30921.9,18844.8,,,,,,,,COc1ccc(-c2oc3c(CC=C(C)C)c(O[C@@H]4O[C@H](CO)[C@@H](O)[C@H](O)[C@H]4O)cc(O)c3c(=O)c2O[C@@H]2O[C@@H](C)[C@H](O)[C@@H](O)[C@H]2O)cc1 [Icariin]
0.42,0.629,0.525,25439.4,31392.8,19486,,,,,,,,COc1ccc(-c2oc3c(CC=C(C)C)c(O)cc(O)c3c(=O)c2O)cc1 [Icaritin]
0.626,-0.232,0.197,22078.3,33866.6,10290,,,,,,,,O=C(c1ccc(O)cc1)c1c(O)cc(O)c([C@@H]2O[C@H](CO)[C@@H](O)[C@H](O)[C@H]2O)c1O [Iriflophenone 3-C-glucoside]
0.106,0.25,0.178,21528.7,27620,15437.3,,,,,,,,COc1ccc(-c2coc3cc(O[C@@H]4O[C@H](CO)[C@@H](O)[C@H](O)[C@H]4O)c(OC)c(O)c3c2=O)cc1O [Iristectorin A]
-0.293,-0.887,,,22827.1,3295.67,-0.59,13061.4,,,,,,COc1cc(-c2coc3cc(O[C@@H]4O[C@H](CO)[C@@H](O)[C@H](O)[C@H]4O)c(OC)c(O)c3c2=O)ccc1O [Iristectorin B]

# More lines, now with the values behind:
Compound,Z repl 1,Z Repl 2,av Z [1],av puncta (average of raw data 1 and 2),raw data 1 (puncta),raw data 2 (puncta),av Z [2],av puncta [3],raw data 1 (raw puncta),raw data 2 (raw puncta),av Z [4],"AvZ (average z score of seeding, SDs from the mean level of seeding)","av Z (average Z score of two replicates, Phenols Library screen)"
CC1(C)C=Cc2c(ccc3c2OC[C@@H](c2ccc(O)cc2O)C3)O1 [Glabridin],0.624,0.805,0.715,27603.9,33843.5,21364.3,,,,,,,
COc1c(CC=C(C)C)c(O)cc2oc(=O)c(-c3ccc(O)cc3O)cc12 [Glycycoumarin],0.796,0.821,,28718.5,35905.3,21531.6,,,,,0.808,,
Oc1cc(O)cc(/C=C/c2c(O)cccc2O)c1 [Gnetol],-2.02,-1.135,,1372.64,2096.46,648.824,-1.577,,,,,,
Cc1cc2c(C(C)C)c(O)c(O)c(C=O)c2c(O)c1-c1c(C)cc2c(C(C)C)c(O)c(O)c(C=O)c2c1O [Gossypol],-2.171,-0.607,,3285.13,287.373,6282.89,-1.389,,,,,,
C[C@@H]1O[C@@H](Oc2c(-c3ccc(O)cc3)oc3cc(O[C@@H]4O[C@@H](C)[C@H](O)[C@@H](O)[C@H]4O[C@@H]4O[C@H](CO)[C@@H](O)[C@H](O)[C@H]4O)cc(O)c3c2=O)[C@H](O)[C@H](O)[C@H]1O [Grosvenorine],0.758,0.703,,27858.6,35445.3,20271.9,,,,,0.73,,
O=c1c(O[C@@H]2OC[C@H](O)[C@H](O)[C@H]2O)c(-c2ccc(O)c(O)c2)oc2cc(O)cc(O)c12 [Guaijaverin],-0.067,-0.383,,,,,-0.225,17108.5,25544.8,8672.24,,,
Oc1cc2c(cc1O)[C@@H]1c3ccc(O)c(O)c3OC[C@]1(O)C2 [Hematoxylin],-1.7,-0.865,,4731.6,5936.96,3526.25,-1.283,,,,,,
Cl.Oc1ccc(CC2NCCc3cc(O)c(O)cc32)cc1 (stereo not drawn) [Higenamine (hydrochloride)],-0.238,-1.059,,,23487.2,1451.73,-0.649,12469.5,,,,,
COc1cc(CNC(=O)CCCCCCCC(C)C)ccc1O [Homodihydrocapsaicin I],-0.665,0.327,,17309.6,18361.4,16257.8,,,,,,-0.169,
O=C(O)Cc1cc(O)ccc1O [Homogentisic acid],-1.286,-1.085,,6046.8,10913.7,1179.87,,,,,,-1.185,
COc1c(O[C@@H]2O[C@H](CO)[C@@H](O)[C@H](O)[C@H]2O)cc2oc(-c3ccc(O)cc3)cc(=O)c2c1O [Homoplantaginin],-0.079,-0.247,,17765.2,25406.2,10124.2,,,,,,,-0.163
COc1cc(CCO)ccc1O [Homovanillyl alcohol],-0.272,0.136,,18647.3,23079.4,14215.2,,,,,,-0.068,
COc1cc(O)c2c(=O)cc(-c3ccc(O)c(O)c3)oc2c1 [Hydroxygenkwanin],-0.407,-0.493,,,,,-0.45,14482.9,21459.9,7505.79,,,
O=C(/C=C/c1ccc(O)cc1)C1=C(O)C(O)([C@@H]2O[C@H](CO)[C@@H](O)[C@H](O)[C@H]2O)C(O)=C([C@@H]2O[C@H](CO)[C@@H](O)[C@H](O)[C@H]2O)C1=O (stereo partly drawn) [Hydroxysafflor yellow A],-0.826,-0.428,,,16428.1,8192.15,-0.627,12310.1,,,,,
OCCc1ccc(O)c(O)c1 [Hydroxytyrosol],-0.11,-0.571,,,,,,15851.9,25031.1,6672.58,,-0.34,
Cc1cc(O)c2c(=O)c3c(O)cc(O)c4c5c(O)cc(O)c6c(=O)c7c(O)cc(C)c8c1c2c(c34)c(c78)c65 [Hypericin],-1.344,-0.424,,9227.43,10216.3,8238.56,-0.884,,,,,,
COc1c2c3c4c(c(OC)c(=O)c5c(O)cc(OC)c(c6c(OC)cc(O)c(c1=O)c63)c54)[C@@H](C(C)=O)[C@@](C)(O)C2 [Hypocrellin A],-1.761,-1.119,,3011.52,5209.06,813.974,-1.44,,,,,,
COc1ccc(-c2coc3cc(O)c(OC)c(O)c3c2=O)cc1 [Irisolidone],0.554,1.188,,29224.4,32994.7,25454.1,,,,,0.871,,
